Experimental data: paper PMC5654414, “In vitro and in vivo comparative and competitive activity-based protein profiling of GH29 α-L-fucosidases” (Chemical Science, 2015)

Tests used:
[1] = target: T1, recombinant human FUCA1 (human lysosomal α-L-fucosidase) (Homo sapiens, UniProt P04066); assay: In vitro inhibition of FUCA1 activity, 4-methylumbelliferyl-α-L-fucopyranoside substrate, lysates of COS-7 cells over-expressing enzyme; format: biochemical
T1 construct: expressed in transfected cells; host or cells: COS-7
T1 sequence (P04066 32-466): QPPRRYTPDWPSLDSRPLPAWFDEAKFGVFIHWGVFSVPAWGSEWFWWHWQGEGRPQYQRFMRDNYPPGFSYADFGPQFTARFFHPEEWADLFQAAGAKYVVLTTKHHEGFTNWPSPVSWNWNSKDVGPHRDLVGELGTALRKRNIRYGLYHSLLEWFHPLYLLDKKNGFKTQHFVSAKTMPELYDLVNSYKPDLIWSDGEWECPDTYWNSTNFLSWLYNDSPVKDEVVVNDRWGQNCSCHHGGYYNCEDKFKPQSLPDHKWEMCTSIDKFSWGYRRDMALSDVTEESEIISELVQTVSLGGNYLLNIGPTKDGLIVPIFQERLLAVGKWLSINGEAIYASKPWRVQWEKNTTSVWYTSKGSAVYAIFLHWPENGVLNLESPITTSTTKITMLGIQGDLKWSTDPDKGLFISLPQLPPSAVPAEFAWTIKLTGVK
Experimental: Having the cyclophellitol aziridine inhibitors and probes in hand, we determined their inhibitory potency towards the human lysosomal α-L-fucosidase, FUCA1.
The enzymatic activity of α-L-fucosidase was assayed at 37 °C by incubating with 1.5 mM 4-methylumbelliferyl-α-L-fucopyranoside as substrate in 150 mM McIlvaine buffer, pH 4.5, supplemented with 0.1% (w/v) BSA. […] The reaction was quenched by adding excess NaOH–glycine (pH 10.6), after which fluorescence was measured with a fluorimeter LS55 (Perkin Elmer) using λEX 366 nm and λEM 445 nm.

[2] = target: T2, FUCA1 (recombinant human GH29 α-L-fucosidase per table title) (Homo sapiens, UniProt P04066); assay: In situ inhibition of FUCA1 in living fibroblasts; format: cell-based
T2 construct: endogenous in cells; host or cells: fibroblasts
T2 sequence (P04066 32-466): T1 sequence (P04066 32-466)

[3] = system: purified α-L-fucosidase from Bacteroides thetaiotaomicron; assay: In vitro ABP labeling of purified bacterial α-L-fucosidase; format: binding
Experimental: All pre-incubations and ABP labeling-reactions occurred for 30 min at 37 °C. Total lysates (50 μg), medium (500 μg) or purified protein preparations (5 μg) were labeled with 1 μM JJB256 1 or JJB244 2, dissolved in 150 mM McIlvaine buffer, pH 4.5, incubating for 30 min at 37 °C. For ABPP, protein preparations were pre-incubated with compounds 4 (100 μM), 6 (100 μM), 7–13 (1 or 5 mM, specified in the main text) prior to the addition of 100 nM fluorescent ABPs. Influence of pH on ABP labeling involved pre-incubation at pH 3–10 prior to addition of 100 nM ABP 1. Direct labeling of retaining β-glucosidases occurred at pH 5.0 in conjunction with 100 nM ABP JJB75. Samples were then denatured with 5× Laemmli buffer (50% (v/v) 1 M Tris–HCl, pH 6.8, 50% (v/v) 100% glycerol, 10% (w/v) DTT, 10% (w/v) SDS, 0.01% (w/v) bromophenol blue), boiled for 4 min at 100 °C, and separated by gel electrophoresis on 10% (w/v) SDS-PAGE gels running continuously at 90 V.[13],[14] Wet slab-gels were scanned on fluorescence using a Typhoon Variable Mode Imager (Amersham Biosciences) using λEX 488 nm and λEM 520 nm (band pass filter 40 nm) for green fluorescent JJB256 1 and λEX 532 nm and λEM 610 nM (band pass filter 30 nm) for red fluorescent JJB244 2 and JJB75.

FUCA1 [4] = target: T3, FUCA1 (Homo sapiens, UniProt P04066); assay: In vitro ABP labeling of FUCA1 overexpressed in COS cells; format: binding
T3 sequence (P04066 32-466): T1 sequence (P04066 32-466)
Excerpt: Subsequently, we exposed lysates of spleens from a healthy human individual and a patient suffering from Gaucher disease to ABP 1.
The coding sequences of H. sapiens FUCA1 (NCBI reference sequence XM_005245821.1, using forward primer 5′-[…]-3′ and reverse primer 5′-[…]-3′), and of H. sapiens FUCA2 (NCBI reference sequence NM_032020.4, using forward primer 5′-[…] […]-3′ and reverse primer 5′-[…] […]-3′) were amplified via PCR and cloned into pDNOR-221 and thereafter sub-cloned in pcDNA™-DEST40 vector using the Gateway system (Invitrogen). Correctness of all constructs was verified by sequencing. Confluent COS-7 cells were transfected with pcDNA3.1 empty vector (Mock) or the vector with described insert in conjunction with FuGENE (Roche).
All pre-incubations and ABP labeling-reactions occurred for 30 min at 37 °C. Total lysates (50 μg), medium (500 μg) or purified protein preparations (5 μg) were labeled with 1 μM JJB256 1 or JJB244 2, dissolved in 150 mM McIlvaine buffer, pH 4.5, incubating for 30 min at 37 °C. […] Wet slab-gels were scanned on fluorescence using a Typhoon Variable Mode Imager (Amersham Biosciences) using λEX 488 nm and λEM 520 nm (band pass filter 40 nm) for green fluorescent JJB256 1 and λEX 532 nm and λEM 610 nM (band pass filter 30 nm) for red fluorescent JJB244 2 and JJB75.

FUCA1 [5] = target: T3, FUCA1; assay: ABP pulldown from Gaucher spleen lysate and LC-MS/MS identification; format: binding; parameters: lysates of spleens from a healthy human individual and a patient suffering from Gaucher disease; from tissue; host or cells: human spleen (normal subject and type 1 Gaucher patient); conditions: 10 μM pre-incubation followed by 10 μM ABP 3
Experimental: To further determine the specificity of the developed ABPs, we have analyzed the ABP-labeled proteins in a complex tissue homogenate. For this purpose, we incubated Gaucher spleen lysate with biotinylated ABP 3 or with DMSO only (control) or competitive ABP 3-labeling by first incubating with fluorescent ABP 1. Glycosylated proteins were then enriched via ConA, followed by affinity purification with streptavidin coated paramagnetic beads. The identity of biotinylated and ABP 3-labeled proteins was determined by on-bead digestion with trypsin, peptide analysis by LC-MS/MS and matching against the human UniProt database, using the Mascot search engine as previously reported.[14] […]
Gaucher spleen lysate (1 g) was cut with a sterile scalpel, mixed with 4 mL 25 mM potassium phosphate buffer (pH 6.5, supplemented with 0.1% (v/v) Triton X-100 and protease inhibitor cocktail (Roche)) and sonicated three times for 10 seconds at 100% strength and kept on ice. […] Lysate was then centrifuged for 10 min at 10 000 g, supernatant collected carefully, protein concentration determined and […] total protein was then incubated with either 0.1% (v/v) DMSO, ABP 1 or ABP 3, or firstly with 10 μM ABP 1 followed by 10 μM of ABP 3, each step taking 30 min at 37 °C, in a total volume of 1 mL McIlvaine buffer, pH 4.5. […]

CC1=CC(C)=[N+]2C1=C(CCCCc1cn(CCCCCCCC(=O)N3[C@@H]4[C@@H](C)[C@@H](O)[C@@H](O)[C@H](O)[C@@H]43)nn1)c1c(C)cc(C)n1[B-]2(F)F [compound 1]
IC50 [1]: 6.9 ± 0.8 nM | IC50 [2]: 28.9 ± 4.4 nM | labeling of enzyme [3]: efficiently labels | labeling of enzyme (FUCA1 [4]): labeled | blocking of ABP 3 binding by pre-incubation (FUCA1 [5]): completely blocked
